{
  "source": "paper PMC8958504",
  "about": "(Journal of Medicinal Chemistry, 2022)",
  "key": {"[1]": {"biological_target": "T1, hMAO-A (Homo sapiens, UniProt P21397)", "T1 sequence (P21397 1-527)": "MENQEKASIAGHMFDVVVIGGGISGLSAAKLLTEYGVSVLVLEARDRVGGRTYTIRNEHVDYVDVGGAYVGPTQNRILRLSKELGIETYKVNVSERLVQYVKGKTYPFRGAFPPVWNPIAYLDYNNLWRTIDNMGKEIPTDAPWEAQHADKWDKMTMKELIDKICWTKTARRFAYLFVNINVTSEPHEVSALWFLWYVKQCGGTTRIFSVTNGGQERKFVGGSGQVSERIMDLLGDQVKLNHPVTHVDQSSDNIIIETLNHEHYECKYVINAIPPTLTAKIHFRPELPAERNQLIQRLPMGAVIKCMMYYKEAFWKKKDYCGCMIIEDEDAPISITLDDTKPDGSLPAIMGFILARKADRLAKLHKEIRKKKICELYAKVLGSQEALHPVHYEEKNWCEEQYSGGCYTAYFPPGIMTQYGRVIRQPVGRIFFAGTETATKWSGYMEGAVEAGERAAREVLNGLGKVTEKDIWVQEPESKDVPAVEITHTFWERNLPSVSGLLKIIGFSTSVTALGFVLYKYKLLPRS", "assay": "biochemical", "conditions": "read-out: hMAO-A (IC50); recombinant hMAO-A, p-tyramine substrate", "protocol": "(§1) The hMAO-A/B inhibition of all compounds was determined using the Amplex Red MAO assay kit.\n(§2) Assays were performed following the general procedure previously described.[98] […] The specific fluorescence emission was calculated after subtracting the background activity, which was determined from wells containing all components except the hMAO isoforms, which were replaced with PBS."}, "[2]": {"biological_target": "T2, hMAO-B (Homo sapiens, UniProt P27338)", "T2 sequence (P27338 1-520)": "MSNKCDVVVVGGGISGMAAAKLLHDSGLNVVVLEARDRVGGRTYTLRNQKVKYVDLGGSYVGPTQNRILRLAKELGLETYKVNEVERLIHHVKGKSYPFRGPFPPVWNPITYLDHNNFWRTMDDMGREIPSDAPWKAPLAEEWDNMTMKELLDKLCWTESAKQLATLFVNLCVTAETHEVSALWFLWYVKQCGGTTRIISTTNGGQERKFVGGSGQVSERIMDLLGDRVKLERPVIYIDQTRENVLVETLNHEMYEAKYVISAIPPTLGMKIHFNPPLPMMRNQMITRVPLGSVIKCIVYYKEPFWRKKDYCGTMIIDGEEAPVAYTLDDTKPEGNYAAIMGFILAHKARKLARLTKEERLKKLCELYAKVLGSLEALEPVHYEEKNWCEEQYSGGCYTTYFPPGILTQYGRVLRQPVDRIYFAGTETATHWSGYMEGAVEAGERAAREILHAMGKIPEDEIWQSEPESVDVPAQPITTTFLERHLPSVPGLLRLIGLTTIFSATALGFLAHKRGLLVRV", "assay": "biochemical", "conditions": "read-out: hMAO-B (IC50); recombinant hMAO-B, p-tyramine substrate", "protocol": "as §1, §2"}, "[3]": {"system": "NRF2-ARE signaling pathway", "assay": "cells", "type": "cell-based", "conditions": "concentration required to double luciferase activity, AREc32 cells, 24 h", "protocol": "AREc32 cells were plated in 96-well white plates (2 × 10^4 cells/well). […]. The AREc32 cells constitutively express the plasmid pGL-8xARE that implements eight copies of the EpRE sequences, followed by the luciferase reporter gene. Therefore, NRF2 induction is related to the activation of EpRE sequences, expressing luciferase at the same extent as EpRE sequences are activated. The Luciferase Assay System (Promega E1500) was used according to the provider’s protocol, and luminescence was quantified in an Orion II microplate luminometer (Berthold, Germany). Fold induction of luciferase activity was normalized to basal conditions. Data are expressed as CD values, expressing the concentration required to double the luciferase activity. CD values were calculated from dose–response curves generated from the fold induction of control conditions versus inducer concentration and fitted by nonlinear regression and data interpolated to twofold induction concentration.[68]"}, "[4]": {"assay": "Oxygen radical absorbance capacity (ORAC-FL) assay", "conditions": "trolox = 1.0", "protocol": "2,2′-Azobis-(amidinopropane) dihydrochloride (AAPH), trolox, and fluorescein (FL) were purchased from Sigma-Aldrich. The reaction was carried out in a 75 mM phosphate buffer (pH 7.4), and the final reaction mixture was 200 μL. […] Antioxidant curves (fluorescence vs time) were first normalized to the curve of the blank corresponding to the same assay, and the area under the curve (AUC) of fluorescence decay was calculated. The net AUC corresponding to a sample was calculated by subtracting the AUC corresponding to the blank. Regression equations between the net AUC and antioxidant concentration were calculated for all the samples."}, "[5]": {"biological_target": "T3, QR2 (Mesocricetus auratus, UniProt A0ABM2YAB8)", "T3 sequence (A0ABM2YAB8 1-231)": "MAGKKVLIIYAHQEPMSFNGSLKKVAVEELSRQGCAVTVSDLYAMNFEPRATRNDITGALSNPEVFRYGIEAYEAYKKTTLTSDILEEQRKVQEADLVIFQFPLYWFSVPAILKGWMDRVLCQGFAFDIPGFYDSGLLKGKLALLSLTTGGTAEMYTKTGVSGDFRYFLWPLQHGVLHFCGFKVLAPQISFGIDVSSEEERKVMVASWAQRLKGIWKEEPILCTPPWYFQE", "assay": "biochemical", "conditions": "for inhibition at 10 µM: read-out: QR2 percentage of inhibition (in brackets)", "protocol": "The QR2 experiments were performed in membrane homogenates of hamster brains (https://www.eurofins.fr, catalog ref. 0088). […] First, radioligand displacement was measured at a fixed compound concentration (10 μM) in each receptor."}, "[6]": {"assay": "in vitro", "type": "in vitro ADME", "conditions": "for Papp at 240 min, 100 μg mL^–1: PAMPA, pH 7.4, class from PAMPA-BBB Pe, read-out: CNS-permeability prediction; for PAMPA-BBB (Pe, 10^–6 cm s^–1): porcine brain lipid, PBS/EtOH (70:30), 240 min, 25 °C"}, "[7]": {"system": "adult mice NSCs", "assay": "Neurogenic studies in SGZ-derived neurospheres", "type": "cell-based, mouse", "conditions": "10 μM, data not shown", "protocol": "Adult mice NSCs were isolated from SGZ of the dentate gyrus of the hippocampus and grown as free-floating neurospheres (NS).[72],[78] The neurogenic potential of each compound was determined using fluorescence confocal microscopy by quantifying the expression of two well-known neuronal markers: human β-III-tubulin (TuJ-1 clone) and microtubule-associated protein 2 (MAP-2). TuJ-1 is expressed in immature neurons, whereas the expression of MAP-2 indicates a consolidated mature neuronal stage.[79] Given that neurogenesis involves not only the proliferation of NSC but also the migration of newly generated cells, the greatest migration distance promoted by each compound was also measured (Figure 8).\nAdult male C57BL/6 mice (3 months old) were used in order to determine neurogenesis activity. […] DAPI staining was used as a nuclear marker. Fluorescent representative images were acquired with a Nikon fluorescence microscope 90i coupled to a digital camera Qi. The microscope configuration was adjusted to produce the optimum signal-to-noise ratio. […] Quantification was undertaken using the image analySIS software (Soft Imaging System Corp., Münster, Germany) and normalized to total nuclei (DAPI-stained). The intensity of immunostaining of neurites from TuJ1-labeled cells and the number of MAP-2-positive cells were estimated from nine neurospheres per condition over three independent experiments. The outgrowth of the neurosphere cells was examined under a phase-contrast microscope and the farthest distance of cell migration was calculated from the edge of the sphere. At least 10 plated neurospheres per treatment were analyzed."}, "[8]": {"system": "human neuroblastoma SH-SY5Y cell line", "assay": "Cell viability per se in SH-SY5Y cells (MTT)", "conditions": "100 μM, 24 h", "method": "The cells from the 3rd to 12th passage were seeded at a density of 80,000 cells/well in 96-well plates and were used to assess the properties of our compounds.\nAfter treatment, the SH-SY5Y cells, rat primary neuronal cultures, and hippocampal slices were incubated for 90 min with tetrazolium salt MTT (0.5 mg/mL) solution. This assay is based on the reduction of MTT (yellow salt) to purple insoluble formazan crystals by oxidoreductase enzymes from living cells. Thereafter, in order to solubilize the formazan crystal, the cells/slices were incubated for another 45 min in dimethyl sulfoxide (DMSO). […] The basal absorbance was set to 100%, and the results were normalized to basal conditions."}, "[9]": {"system": "rat primary cortical neurons", "assay": "Neuroprotection against OA-induced toxicity in rat primary cortical neuronal cultures (MTT)", "conditions": "compound 1 μM, OA 10 nM"}, "[10]": {"system": "mouse hippocampal slices", "conditions": "1 μM, OA 1 μM, 6 h", "protocol": "Once the treatment was ended, the cell viability was measured by the MTT method, cell death with the fluorescent probe PI (1 μg/mL), and ROS production with the fluorescent probe H2DCFDA (10 μL/mL).\nFluorescence from whole slices was measured as the mean intensity with an inverted Nikon eclipse T2000-U microscope (Nikon Instruments). […] The results were normalized to the basal condition, which was considered as 100%. Image analysis was performed using Fiji software."}, "[11]": {"biological_target": "T4, hMT2R (Homo sapiens, UniProt P49286)", "T4 construct": "host or cells: Chinese hamster ovary cells", "T4 sequence (P49286 1-362)": "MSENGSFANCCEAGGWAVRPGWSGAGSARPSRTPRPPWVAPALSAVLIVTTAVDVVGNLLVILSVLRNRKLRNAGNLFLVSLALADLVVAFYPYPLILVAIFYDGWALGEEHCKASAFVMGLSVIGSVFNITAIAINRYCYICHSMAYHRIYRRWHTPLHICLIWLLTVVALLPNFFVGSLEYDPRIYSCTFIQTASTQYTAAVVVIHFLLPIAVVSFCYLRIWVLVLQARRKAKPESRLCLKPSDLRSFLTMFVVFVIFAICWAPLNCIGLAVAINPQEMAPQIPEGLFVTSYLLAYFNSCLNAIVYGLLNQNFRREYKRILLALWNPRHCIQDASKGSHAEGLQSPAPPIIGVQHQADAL", "assay": "hMT2R radioligand displacement in transfected CHO cells", "conditions": "read-out: hMT2R binding affinity (Ki)", "protocol": "Assays in MT1R and MT2R were carried out using human receptors that were stably transfected in Chinese hamster ovary cells (https://www.eurofins.fr, catalog refs. 1538 and 1687). The QR2 experiments were performed in membrane homogenates of hamster brains (https://www.eurofins.fr, catalog ref. 0088). […] First, radioligand displacement was measured at a fixed compound concentration (10 μM) in each receptor. […] (E)-Resveratrol and melatonin were tested for comparative purposes."}},
  "data": [
    {"smiles": "C#CCn1nc(/C=C/c2ccccc2)oc1=O", "note": "[4a, 5-[(E)-2-Phenylethenyl]-3-(prop-2-yn-1-yl)-1,3,4-oxadiazol-2(3H)-one]", "values": [
      {"measurement": "IC50", "setting": "[1]", "value": "> 50", "unit": "µM"},
      {"measurement": "IC50", "setting": "[2]", "value": "9.87 ± 1.22", "unit": "µM"},
      {"measurement": "NRF2 (CD, μM)", "setting": "[3]", "value": "16.9 ± 0.4", "unit": "µM"},
      {"measurement": "ORAC (trolox equiv)", "setting": "[4]", "value": "<0.1", "unit": "trolox equiv"},
      {"measurement": "IC50", "setting": "[5]", "value": "> 10", "unit": "µM"},
      {"measurement": "inhibition at 10 µM", "setting": "[5]", "value": 44, "unit": "%"},
      {"measurement": "Papp at 240 min, 100 μg mL^–1", "setting": "[6]", "value": "> 4", "unit": "×10⁻⁶ cm/s"},
      {"measurement": "PAMPA-BBB (Pe, 10^–6 cm s^–1)", "setting": "[6]", "value": "13.6 ± 0.5 10^–6 cm s^–1"},
      {"measurement": "capacity to differentiate NSCs", "setting": "[7]", "value": "poor capacity to differentiate NSCs"},
      {"measurement": "reduction of cell viability", "setting": "[8]", "value": "around 30%"},
      {"measurement": "neuroprotection against OA-induced toxicity", "setting": "[9]", "value": "not able to significantly reduce neuronal death"}
    ]},
    {"smiles": "Oc1ccc(/C=C/c2cc(O)cc(O)c2)cc1", "note": "[(E)-resveratrol, reference compound]", "values": [
      {"measurement": "IC50", "setting": "[2]", "value": "29.9 ± 1.8", "unit": "µM"},
      {"measurement": "NRF2 (CD, μM)", "setting": "[3]", "value": "21.0 ± 2.0", "unit": "µM"},
      {"measurement": "cell viability (MTT)", "setting": "[10]", "value": "significantly increased the cell viability to almost basal levels, in a similar way to resveratrol treatment"},
      {"measurement": "reduction of cell viability", "setting": "[8]", "value": "over 50%"}
    ]},
    {"smiles": "C#CCNC(=O)/C=C/c1cccc(OC)c1", "note": "[6d, (2E)-3-(3-Methoxyphenyl)-N-(prop-2-yn-1-yl)prop-2-enamide]", "values": [
      {"measurement": "IC50", "setting": "[1]", "value": "> 50", "unit": "µM"},
      {"measurement": "IC50", "setting": "[2]", "value": "> 50", "unit": "µM"},
      {"measurement": "ORAC (trolox equiv)", "setting": "[4]", "value": "<0.1", "unit": "trolox equiv"},
      {"measurement": "IC50", "setting": "[5]", "value": "~10", "unit": "µM"},
      {"measurement": "inhibition at 10 µM", "setting": "[5]", "value": 76, "unit": "%"},
      {"measurement": "Papp at 240 min, 100 μg mL^–1", "setting": "[6]", "value": "> 4", "unit": "×10⁻⁶ cm/s"},
      {"measurement": "PAMPA-BBB (Pe, 10^–6 cm s^–1)", "setting": "[6]", "value": "4.1 ± 0.2 10^–6 cm s^–1"},
      {"measurement": "Ki", "setting": "[11]", "value": 1.4, "unit": "µM"}
    ]}
  ]
}
